Experimental findings from patent US8013006B2 are described below.

One data set has as its system wild-type poliovirus. It counts as cell-based. The settings on record: Hela cells, MOI 0.1, one day; for WT-PV CPE (1 μM)*: 1 μM compound; for WT-PV CPE (10 μM)*: 10 μM compound; for WT-PV CPE (100 μM) *: 100 μM compound.
A further data set concerns HCV replicon. As to the kind of experiment: microbe, parasite or virus in culture. The data set is classed as cell-based.
Data set [1] concerns cap-dependent translation. As to the kind of experiment: Western blot of Fluc reporter protein in pLuc cells. It counts as cell-based, human. The settings on record: 20 hours.
Where [2] appears, read: Replicon IC50 values are determined by firefly luciferase signal, bicistronic replicon, 2 days, read-out: Replicon IC5Os.
[3] abbreviates: Hepatitis C virus, 48 h, read-out: Replicon IC5Os μM.

Like-named read-outs stand apart in the source and are kept apart here.

Regarding `COc1ccc(-n2cc(C#N)c3ccc(OC)cc32)cc1` [Compound 4], in the data set on wild-type poliovirus, the “WT-PV CPE (1 μM)*” value is given as 1, the “WT-PV CPE (10 μM)*” value is given as 2 and the “WT-PV CPE (100 μM) *” value came out at 3. Also, the IC50 with HCV replicon (setting [2]) is greater than 2 µM.

Take `CCn1cc(C#N)c2ccc(OC(C)C)cc21` [Compound 10]: in the data set with wild-type poliovirus, the “WT-PV CPE (1 μM)*” value is reported as 2, the “WT-PV CPE (10 μM)*” value is recorded as 2 and the “WT-PV CPE (100 μM) *” value stood at 3. Moreover, the IC50 in the data set with HCV replicon (setting [2]) is greater than 2 µM.

For `CCn1c(-c2ccc(OC)cc2)c(C#N)c2ccc(OC)cc21` [Compound 19], in the data set on wild-type poliovirus, the “WT-PV CPE (1 μM)*” value is on record as 1, the “WT-PV CPE (10 μM)*” value turned out to be 2 and the “WT-PV CPE (100 μM) *” value worked out at 3. Further, the IC50 in the data set with HCV replicon (setting [2]) is greater than 2 µM.

On to `COc1ccc2c(C#N)c(C)n(-c3ccc4c(c3)OCO4)c2c1` [Compound 24], for which, in the data set with wild-type poliovirus, the “WT-PV CPE (1 μM)*” value was 2, the “WT-PV CPE (10 μM)*” value was determined as 2 and the “WT-PV CPE (100 μM) *” value amounted to 3. Further, in the data set with HCV replicon (setting [2]), the IC50 fell in the range of 0.5 to 2 µM.

As a reminder, the melting point is the temperature of the solid-liquid transition. `CCOc1ccc2c(C#N)c(-c3ccc(NC(=O)NCCCl)cc3)n(CC)c2c1` [Compound 774] displayed a melting point of 205 to 206 °C. Moreover, the IC50 in the data set with HCV replicon (setting [3]) was 0.5 to 2 µM.

Take `COc1ccc2c(C#N)c(-c3cccc(N4CCCS4(=O)=O)c3)n(C(C)C)c2c1` [Compound 784]: the melting point fell in the range of 245 to 246 °C. Further, the IC50 in the data set with HCV replicon (setting [3]) was 0.5 to 2 µM.

In the case of `CCCS(=O)(=O)Nc1ccc(-c2c(C#N)c3cc(OC)ccc3n2CC)cc1` [Compound 789], the melting point was 154 to 156 °C. Besides, the IC50 in the data set with HCV replicon (setting [3]) is less than 0.5 µM.

In the case of `CCn1c(-c2ccc(NS(=O)(=O)C3CC3)cc2)c(C#N)c2cc(OC)ccc21` [Compound 791], the melting point lay in the range of 149 to 152 °C. Also, in the data set with HCV replicon (setting [3]), the IC50 was less than 0.5 µM.

Turning to `CCn1c(-c2ccc(NC(=O)OC)cc2)c(C#N)c2cc(OC)ccc21` [Compound 792], the melting point is 182 to 185 °C. The IC50 in the data set with HCV replicon (setting [3]) is less than 0.5 µM.

The compound `CCOC(=O)Nc1ccc(-c2c(C#N)c3cc(OC)ccc3n2CC)cc1` [Compound 793] had a melting point of 154 to 155 °C. Further, in the data set on HCV replicon (setting [3]), the IC50 was less than 0.5 µM.

As to `CCCOC(=O)Nc1ccc(-c2c(C#N)c3cc(OC)ccc3n2CC)cc1` [Compound 794], the melting point was in the range of 149 to 151 °C. Further, the IC50 with HCV replicon (setting [3]) was less than 0.5 µM.

`CCn1c(-c2ccc(NC(=O)OC(C)C)cc2)c(C#N)c2cc(OC)ccc21` [Compound 795] yielded a melting point of 183 to 185 °C. Moreover, the IC50 in the data set on HCV replicon (setting [3]) was less than 0.5 µM.

As for `CCn1c(-c2ccc(NC(=O)C3CCC3)cc2)c(C#N)c2ccc(OC)cc21` [Compound 801], the melting point was in the range of 199 to 219 °C. Also, the IC50 in the data set on HCV replicon (setting [3]) is less than 0.5 µM.

In turn, `CCn1c(-c2ccc(NC(=O)Cc3ccccc3)cc2)c(C#N)c2ccc(OC)cc21` [Compound 802] displayed a melting point of 196 to 198 °C. Also, the IC50 in the data set on HCV replicon (setting [3]) lay within 0.5 to 2 µM.

As to `CCn1c(-c2ccc(N3CCCC3=O)cc2)c(C#N)c2ccc(OC(F)F)cc21` [Compound 807], the melting point lay within 171 to 172 °C. In addition, the IC50 in the data set on HCV replicon (setting [3]) was less than 0.5 µM.

As to `C=CCNC(=O)Nc1cccc(-c2c(C#N)c3ccc(OC)cc3n2Cc2ccccc2)c1` [Compound 818], the melting point fell in the range of 158 to 159 °C. Further, in the data set with HCV replicon (setting [3]), the IC50 was less than 0.5 µM.

The compound `CC(C)OC(=O)Nc1ccc(-c2c(C#N)c3ccc(OC(F)F)cc3n2C2CCC2)cc1` [Compound 822] showed a melting point of 144 to 145 °C. For the same compound, in the data set with HCV replicon (setting [3]), the IC50 lay in the range of 0.5 to 2 µM.

The compound `CCCn1c(-c2ccc(NS(=O)(=O)C3CC3)cc2)c(C#N)c2ccc(OC(F)F)cc21` [Compound 827] had a melting point of 189 to 191 °C. Besides, the IC50 in the data set on HCV replicon (setting [3]) is less than 0.5 µM.

Take `CCOc1ccc(-c2c(C#N)c3ccc(NS(C)(=O)=O)cc3n2CC)cc1` [Compound 834]: the melting point lay within 179 to 180 °C. Further, the IC50 in the data set on HCV replicon (setting [3]) is 0.5 to 2 µM.

As for `CCCn1c(-c2ccc(NC(=O)NCCc3ccccc3)cc2)c(C#N)c2ccc(OC)cc21` [Compound 848], the melting point was 193 to 194 °C. For the same compound, the IC50 in the data set with HCV replicon (setting [3]) was in the range of 0.5 to 2 µM.

`CCCn1c(-c2ccc(NS(=O)(=O)CCCCl)cc2)c(C#N)c2ccc(OC)cc21` [Compound 850] registered a melting point of 179 to 180 °C. The IC50 in the data set on HCV replicon (setting [3]) was 0.5 to 2 µM.

`CCCn1c(-c2ccc(NS(=O)(=O)C3CC3)cc2)c(C#N)c2ccc(OC)cc21` [Compound 851] displayed a melting point of 186 to 187 °C. For the same compound, in the data set on HCV replicon (setting [3]), the IC50 lay within 0.5 to 2 µM.

For `CCn1c(-c2ccc(NC(=O)C3CCC3)cc2)c(C#N)c2cc(OC)ccc21` [Compound 859], the melting point lay in the range of 191 to 192 °C. Besides, the IC50 in the data set with HCV replicon (setting [3]) was 0.5 to 2 µM.

Turning to `COc1ccc(C[C@H](N)C(=O)N[C@H]2[C@@H](O)[C@H](n3cnc4c(N(C)C)ncnc43)O[C@@H]2CO)cc1` [puromycin], in data set [1], the “luciferase reporter protein level (cap-dependent), Western blot” value is on record as “inhibited”.
